According to US20210222225A1, “Medium for Disk Diffusion Method to Evaluate Antibiotic Sensitivity” (priority 2018, published 2021):
Where a name gives a salt, the structure may show the parent alone.

Key:
[1] = test system: ABA, KPN and PAE strains; test: Growth of strain on guanidine hydrochloride-containing medium; type: cell-based; conditions: guanidine hydrochloride 5 to 50 μg/ml; agar 5.1 g/L
Description: A concentration of agar particles (BD Diagnostic, Sparks, Md., USA) in Mueller-Hinton broth medium (BD Diagnostic) was adjusted to 5.1 g/L, which is 30% of 17 g/L, and guanidine hydrochloride was added to a concentration of 500 μg/ml, 50 μg/ml, or 5 μg/ml. Then, solidification was performed. On a surface of each medium thus prepared was evenly inoculated each of colistin-susceptible (S) or -resistant (R) Acinetobacter baumannii (ABA) strain, colistin-susceptible (S) or -resistant (R) Klebsiella pnemoniae (KPN) strain, and colistin-susceptible (S) or -resistant (R) Pseudomonas aeruginosa (PAE) strain, and a colistin disk was placed thereon.

[2] = test system: Colistin-susceptible Acinetobacter; test: Growth of strain on protamine-containing medium, ACB-S; type: cell-based, Acinetobacter calcoaceticus-baumannii complex
Description: (§1) As in Example 1, a concentration of agar particles (BD Diagnostic, Sparks, Md., USA) in Mueller-Hinton broth medium (BD Diagnostic) was adjusted to 17 g/L or 5.1 g/L that is 30% of 17 g/L. To select a concentration of protamine, which can enhance diffusion of colistin from a disk without interfering with bacterial growth, while using the protamine at various concentrations, protamine (Sigma-Aldrich, St Louis, Mo., USA) was added to the medium at concentrations of 1 mg/ml, 700 μg/ml, 400 μg/ml, 300 μg/ml, 200 μg/ml, 150 μg/ml, 100 μg/ml, and 50 μg/ml. Each medium thus modified was solidified. Then, on a surface of each medium was evenly inoculated each of colistin-susceptible (S) or -resistant (R) Acinetobacter calcoaceticus-baumannii complex (ACB) strain, Pseudomonas aeruginosa ATCC27853 strain, and mcr-1-harboring Enterobacter aerogenes strain, and a colistin disk was placed thereon. Then, it was determined whether each strain was grown, and a diameter of a growth inhibition zone, which had been formed around the disk, was measured.

[3] = test system: mcr-1-harboring Enterobacter aerogenes strain; test: Growth of strain on protamine-containing medium, mcr-1; type: cell-based
Description: as §1

[4] = test system: PAE ATCC 27853; test: Growth of strain on protamine-containing medium, PAE; type: cell-based, Pseudomonas aeruginosa
Description: as §1

[5] = test system: Colistin-resistant Acinetobacter; test: Growth of strain on protamine-containing medium, ACB-R; type: cell-based, Acinetobacter calcoaceticus-baumannii complex
Description: as §1

N=C(N)N [guanidine hydrochloride]
growth of the strain [1]: not inhibited

protamine
Growth ([2]; 30% agar, protamine 50 μg/ml): Grown | Growth ([2]; 30% agar, protamine 100 μg/ml): Grown | Growth ([2]; 30% agar, protamine 150 μg/ml): Grown | Growth ([2]; 100% agar, protamine 50 μg/ml): Grown | Growth ([2]; 100% agar, protamine 100 μg/ml): Grown | Growth ([2]; 100% agar, protamine 150 μg/ml): Grown | Growth ([2]; 100% agar, protamine 200 μg/ml): Grown | Growth ([2]; 100% agar, protamine 300 μg/ml): Grown | Growth ([2]; 100% agar, protamine 400 μg/ml): Grown | Growth ([2]; 100% agar, protamine 700 μg/ml): Grown | Growth ([3]; 30% agar, protamine 50 μg/ml): Grown | Growth ([3]; 30% agar, protamine 100 μg/ml): Grown | Growth ([3]; 30% agar, protamine 150 μg/ml): Grown | Growth ([3]; 30% agar, protamine 200 μg/ml): Grown | Growth ([3]; 100% agar, protamine 50 μg/ml): Grown | Growth ([3]; 100% agar, protamine 100 μg/ml): Grown | Growth ([3]; 100% agar, protamine 150 μg/ml): Grown | Growth ([3]; 100% agar, protamine 200 μg/ml): Grown | Growth ([3]; 100% agar, protamine 300 μg/ml): Grown | Growth ([3]; 100% agar, protamine 400 μg/ml): Grown | Growth ([3]; 100% agar, protamine 700 μg/ml): Grown | Growth ([4]; 30% agar, protamine 50 μg/ml): Grown | Growth ([4]; 30% agar, protamine 100 μg/ml): Grown | Growth ([4]; 30% agar, protamine 150 μg/ml): Grown | Growth ([4]; 30% agar, protamine 200 μg/ml): Grown | Growth ([4]; 100% agar, protamine 50 μg/ml): Grown | Growth ([4]; 100% agar, protamine 100 μg/ml): Grown | Growth ([4]; 100% agar, protamine 150 μg/ml): Grown | Growth ([4]; 100% agar, protamine 200 μg/ml): Grown | Growth ([4]; 100% agar, protamine 300 μg/ml): Grown | Growth ([4]; 100% agar, protamine 400 μg/ml): Grown | Growth ([5]; 30% agar, protamine 50 μg/ml): Grown | Growth ([5]; 30% agar, protamine 100 μg/ml): Grown | Growth ([5]; 30% agar, protamine 150 μg/ml): Grown | Growth ([5]; 100% agar, protamine 50 μg/ml): Grown | Growth ([5]; 100% agar, protamine 100 μg/ml): Grown | Growth ([5]; 100% agar, protamine 150 μg/ml): Grown | Growth ([5]; 100% agar, protamine 200 μg/ml): Grown | Growth ([5]; 100% agar, protamine 300 μg/ml): Grown | Growth ([5]; 100% agar, protamine 400 μg/ml): Grown
